Measured values taken from US20080070794A1, “Chemical sensors” (The Trustees of Princeton University, priority 2005, published 2008).
Residue numbers refer to the chain shown, from its start. Entries after “also recorded” stand apart in the source; their conditions may differ.

Legend:
5HT-1b = 5HT-1b (Homo sapiens, UniProt P28222); settings: cited from earlier work
5HT-1a = target: T1, 5HT-1a (Homo sapiens, UniProt P08908); settings: cited from earlier work
T1 sequence (P08908 1-422): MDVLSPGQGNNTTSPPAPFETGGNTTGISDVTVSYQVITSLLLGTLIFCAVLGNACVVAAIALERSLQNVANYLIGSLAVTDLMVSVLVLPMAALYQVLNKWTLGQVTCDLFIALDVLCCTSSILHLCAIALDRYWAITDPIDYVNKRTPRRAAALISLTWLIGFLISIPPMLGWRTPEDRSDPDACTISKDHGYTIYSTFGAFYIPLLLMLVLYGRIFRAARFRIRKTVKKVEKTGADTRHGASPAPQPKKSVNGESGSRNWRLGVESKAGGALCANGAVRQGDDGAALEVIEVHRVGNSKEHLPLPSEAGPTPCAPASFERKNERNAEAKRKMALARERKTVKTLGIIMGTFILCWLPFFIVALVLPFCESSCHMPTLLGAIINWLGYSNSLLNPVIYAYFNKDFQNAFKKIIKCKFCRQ

alpha A1 = settings: cited from earlier work
5HT-2 = 5HT-2 (Homo sapiens, UniProt P28223); settings: cited from earlier work
beta A2 = beta A2 (Homo sapiens, UniProt P07550); settings: cited from earlier work
D1 = D1 (Homo sapiens, UniProt P21728); settings: cited from earlier work
Histamine = settings: cited from earlier work
alpha A2 = settings: cited from earlier work
D2 = D2 (Homo sapiens, UniProt P14416); settings: cited from earlier work
Muscarinic = settings: cited from earlier work
Melatonin = settings: cited from earlier work
[1] = target: T2, wild type human UDPG receptor (Homo sapiens, UniProt Q15391); experiment: Yeast growth on selective medium, strain CY10560 expressing wild type receptor; type: cell-based; settings: 0.3 μM ligand
T2 construct: The entire UDPG receptor gene was mutagenized via error-prone mutagenesis; expressed in transfected cells; host or cells: Saccharomyces cerevisiae CY10560 (growth) / CY10981 with Cp1021 FUS1-LacZ (β-galactosidase)
T2 sequence (Q15391 1-338): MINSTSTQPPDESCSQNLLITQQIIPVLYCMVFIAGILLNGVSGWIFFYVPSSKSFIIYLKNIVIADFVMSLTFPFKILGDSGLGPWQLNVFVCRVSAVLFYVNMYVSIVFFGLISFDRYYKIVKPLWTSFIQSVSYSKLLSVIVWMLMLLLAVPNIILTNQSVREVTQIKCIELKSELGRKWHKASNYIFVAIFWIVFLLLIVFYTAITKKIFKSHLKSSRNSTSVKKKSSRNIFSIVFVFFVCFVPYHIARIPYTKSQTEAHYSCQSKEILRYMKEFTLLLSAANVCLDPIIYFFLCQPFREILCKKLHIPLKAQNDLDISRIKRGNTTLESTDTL
From the text: Mutagenesis and selection of sensitized receptor mutants. […] The reporter gene, in this context, simply provided a means of confirming that yeast cells intended to be recipients of the GPCR of interest did in fact accept the GPCR. Yeast cells that have incorporated a foreign gene are referred to as “transformants.”
Genetic selection of sensitized receptor mutants.

UDPG receptor mutant K-3 = target: T3, UDPG receptor mutant K-3 (Homo sapiens, UniProt Q15391, A193V/A252V/A98V/E278G/F243I/I251T/K54E/R253K); experiment: β-galactosidase reporter assay in yeast, mutant K-3 receptor; type: cell-based
T3 construct: The entire UDPG receptor gene was mutagenized via error-prone mutagenesis; expressed in transfected cells; host or cells: Saccharomyces cerevisiae CY10560 (growth) / CY10981 with Cp1021 FUS1-LacZ (β-galactosidase)
T3 sequence (Q15391 1-338 K54E/A98V/A193V/F243I/I251T/A252V/R253K/E278G): T2 sequence (Q15391 1-338) with K54E, A98V, A193V, F243I, I251T, A252V, R253K, E278G
Description: (§1) Strains and plasmids. Mutagenesis and selection were performed in yeast strain […] can1-100 […] […] […] ura3-52). β-Galactosidase assays were performed using yeast strain CY10981 (PFUS1-HIS3 can1-100 […] […] […] ura3-52) carrying plasmid Cp1021 (PFUS1-LacZ 2 μm URA3).

[2] = target: T4, UDPG receptor mutant H-20 (Homo sapiens, UniProt Q15391, A193V/A252V/A98V/F243I/I251T/K54E/R253K); experiment: β-galactosidase reporter assay in yeast, mutant H-20 receptor; type: cell-based
T4 construct: The entire UDPG receptor gene was mutagenized via error-prone mutagenesis; expressed in transfected cells; host or cells: Saccharomyces cerevisiae CY10560 (growth) / CY10981 with Cp1021 FUS1-LacZ (β-galactosidase)
T4 sequence (Q15391 1-338 K54E/A98V/A193V/F243I/I251T/A252V/R253K): T2 sequence (Q15391 1-338) with K54E, A98V, A193V, F243I, I251T, A252V, R253K
Description: as §1

[3] = target: T5, UDP-glucose receptor 2211 (Homo sapiens, UniProt Q15391, A193V/A252V/A98V/F243I/K54E); experiment: β-galactosidase reporter assay in yeast, mutant 2211 receptor; type: cell-based
T5 construct: The entire UDPG receptor gene was mutagenized via error-prone mutagenesis; expressed in transfected cells; host or cells: Saccharomyces cerevisiae CY10560 (growth) / CY10981 with Cp1021 FUS1-LacZ (β-galactosidase)
T5 sequence (Q15391 1-338 K54E/A98V/A193V/F243I/A252V): T2 sequence (Q15391 1-338) with K54E, A98V, A193V, F243I, A252V
Description: as §1

K-3 mutant = target: T6, K-3 mutant (Homo sapiens, UniProt Q15391, A193V/A252V/A98V/E278G/F243I/I251T/K54E/R253K); experiment: Yeast growth assay, mutant K-3 receptor; type: cell-based; settings: relative to parent H-20
T6 construct: The entire UDPG receptor gene was mutagenized via error-prone mutagenesis; expressed in transfected cells; host or cells: Saccharomyces cerevisiae CY10560 (growth) / CY10981 with Cp1021 FUS1-LacZ (β-galactosidase)
T6 sequence (Q15391 1-338 K54E/A98V/A193V/F243I/I251T/A252V/R253K/E278G): T2 sequence (Q15391 1-338) with K54E, A98V, A193V, F243I, I251T, A252V, R253K, E278G
From the text: Targeted mutagenesis and selection of functional receptor mutants. To generate targeted mutants, oligonucleotides with randomized sequences, corresponding to the codons to be mutagenized, were utilized to generate overlapping PCR products. The method and many applicable variations thereof are known in the art.
The HTVK mutant, designated H-20, was selected as the template for mutagenesis of three additional motifs, ‘AxxFY’ and ‘NMY’ in TM3, and ‘KExT’ in TM7.

[4] = target: T7, wild type UDPG receptor (P2Y14) (Homo sapiens, UniProt Q15391); experiment: β-galactosidase reporter assay in yeast, wild type receptor; type: cell-based
T7 construct: The entire UDPG receptor gene was mutagenized via error-prone mutagenesis; expressed in transfected cells; host or cells: Saccharomyces cerevisiae CY10560 (growth) / CY10981 with Cp1021 FUS1-LacZ (β-galactosidase)
T7 sequence (Q15391 1-338): T2 sequence (Q15391 1-338)

Chain of 5HT-1b (P28222 whole entry, species assumed): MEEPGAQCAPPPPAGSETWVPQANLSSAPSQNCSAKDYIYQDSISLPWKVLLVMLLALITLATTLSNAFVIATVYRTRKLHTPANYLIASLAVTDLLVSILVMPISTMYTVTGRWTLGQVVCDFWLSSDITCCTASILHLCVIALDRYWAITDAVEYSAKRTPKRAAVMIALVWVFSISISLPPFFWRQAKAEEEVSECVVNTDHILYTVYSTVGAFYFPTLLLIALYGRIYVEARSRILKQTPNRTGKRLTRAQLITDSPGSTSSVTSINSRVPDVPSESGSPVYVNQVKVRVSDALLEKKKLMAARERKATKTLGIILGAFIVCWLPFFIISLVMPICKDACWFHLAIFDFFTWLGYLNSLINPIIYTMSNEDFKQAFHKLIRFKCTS
Chain of 5HT-2 (P28223 whole entry, species assumed): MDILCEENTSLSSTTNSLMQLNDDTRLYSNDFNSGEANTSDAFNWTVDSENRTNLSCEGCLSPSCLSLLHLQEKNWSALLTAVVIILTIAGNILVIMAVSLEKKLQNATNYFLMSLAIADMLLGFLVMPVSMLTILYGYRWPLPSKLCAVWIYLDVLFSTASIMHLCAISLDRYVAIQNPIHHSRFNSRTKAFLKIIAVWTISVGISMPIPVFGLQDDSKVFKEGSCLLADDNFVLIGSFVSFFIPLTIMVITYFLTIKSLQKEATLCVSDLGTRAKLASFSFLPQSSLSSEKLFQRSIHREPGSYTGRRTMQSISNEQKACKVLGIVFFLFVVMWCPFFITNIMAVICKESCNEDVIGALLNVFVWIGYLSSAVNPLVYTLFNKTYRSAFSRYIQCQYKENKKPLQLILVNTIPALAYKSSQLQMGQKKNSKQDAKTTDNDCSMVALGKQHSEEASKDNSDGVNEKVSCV
Chain of beta A2 (P07550 whole entry): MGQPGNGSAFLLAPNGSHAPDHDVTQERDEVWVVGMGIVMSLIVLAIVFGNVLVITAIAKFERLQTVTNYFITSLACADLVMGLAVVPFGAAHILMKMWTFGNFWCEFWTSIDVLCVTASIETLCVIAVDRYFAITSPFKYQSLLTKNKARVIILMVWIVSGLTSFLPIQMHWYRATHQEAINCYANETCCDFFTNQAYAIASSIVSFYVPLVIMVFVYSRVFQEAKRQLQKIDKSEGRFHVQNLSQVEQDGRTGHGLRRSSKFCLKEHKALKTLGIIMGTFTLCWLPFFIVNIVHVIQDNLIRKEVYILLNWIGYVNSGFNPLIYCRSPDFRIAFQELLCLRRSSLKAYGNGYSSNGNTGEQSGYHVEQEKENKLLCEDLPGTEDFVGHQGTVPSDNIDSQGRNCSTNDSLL
Chain of D1 (P21728 whole entry): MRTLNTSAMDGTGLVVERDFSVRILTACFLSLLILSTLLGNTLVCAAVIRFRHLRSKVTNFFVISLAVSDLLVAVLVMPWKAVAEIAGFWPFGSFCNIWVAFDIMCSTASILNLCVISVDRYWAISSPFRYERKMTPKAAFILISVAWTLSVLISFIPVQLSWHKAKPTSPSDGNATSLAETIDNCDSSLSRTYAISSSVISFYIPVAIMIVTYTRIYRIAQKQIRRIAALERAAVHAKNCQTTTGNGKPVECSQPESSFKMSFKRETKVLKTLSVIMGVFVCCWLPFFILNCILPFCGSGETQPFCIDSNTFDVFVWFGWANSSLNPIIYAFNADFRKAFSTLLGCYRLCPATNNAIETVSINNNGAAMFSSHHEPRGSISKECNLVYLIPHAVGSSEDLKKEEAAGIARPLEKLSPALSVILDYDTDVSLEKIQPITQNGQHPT
Chain of D2 (P14416 whole entry): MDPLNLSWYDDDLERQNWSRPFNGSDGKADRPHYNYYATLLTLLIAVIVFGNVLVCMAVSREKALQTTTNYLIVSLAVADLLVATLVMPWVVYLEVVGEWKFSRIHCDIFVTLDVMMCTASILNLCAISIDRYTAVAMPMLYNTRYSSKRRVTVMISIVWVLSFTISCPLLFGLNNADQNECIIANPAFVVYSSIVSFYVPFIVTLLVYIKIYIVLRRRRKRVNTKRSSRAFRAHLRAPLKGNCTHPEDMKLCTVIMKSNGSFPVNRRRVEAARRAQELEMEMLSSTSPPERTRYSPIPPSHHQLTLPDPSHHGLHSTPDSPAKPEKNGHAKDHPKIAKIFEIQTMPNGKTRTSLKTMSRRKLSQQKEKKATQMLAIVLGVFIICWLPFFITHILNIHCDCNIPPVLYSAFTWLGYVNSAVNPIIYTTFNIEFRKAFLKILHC

In the case of `CN1CCc2cccc3c2[C@H]1Cc1ccc(O)c(O)c1-3` [apomorphine], the Kd (5HT-1b) is given as 100 µM, the “x (efficacy factor) 5HT-1b” value (5HT-1b) is given as 1.0 and the “x (efficacy factor) 5HT-1a” value (5HT-1a) is given as 1.0. The Kd (alpha A1) was 2.3 µM, the “x (efficacy factor) alpha A1” value (alpha A1) was 1.0 and the “x (efficacy factor) 5HT-2” value (5HT-2) was 1.0. The “x (efficacy factor) beta A2” value (beta A2) was 1.0, the “x (efficacy factor) D1” value (D1) was 1.0 and the “x (efficacy factor) Histamine” value (Histamine) was 1.0. For the same compound, the Kd (alpha A2) was 1 µM, the “x (efficacy factor) alpha A2” value (alpha A2) was 1.0 and the “x (efficacy factor) D2” value (D2) was 1.0. For the same compound, the Kd (Muscarinic) was 10 µM, the “x (efficacy factor) Muscarinic” value (Muscarinic) was 1.0 and the Kd (Melatonin) was 100 µM. The “x (efficacy factor) Melatonin” value (Melatonin) was 1.0.
In the case of `CC(=O)N[C@H]1[C@@H](OP(=O)(O)OP(=O)(O)OC[C@H]2O[C@@H](n3ccc(=O)[nH]c3=O)[C@H](O)[C@@H]2O)O[C@H](CO)[C@H](O)[C@@H]1O` [UDP-galNAc, UDP-N-acetylgaltactosamine], the “growth on selective medium” value [1] is reported as “fails to grow”.
In the case of `O=c1ccn([C@@H]2O[C@H](COP(=O)(O)OP(=O)(O)O)[C@@H](O)[C@H]2O)c(=O)[nH]1` [UDP, uridine diphosphate], the “agonist/antagonist character at K-3 receptor” value (UDPG receptor mutant K-3) is reported as “at least a partial agonist; also recorded: increasingly strong partial agonist”, the “agonist/antagonist character at H-20 receptor” value [2] is reported as “increasingly strong partial agonist” and the “agonist/antagonist character at 2211 receptor” value [3] is reported as “weakly activated; also recorded: competitive inhibitor; also recorded: primarily as an antagonist”. The “Slope of the linear fit, Schild regression” value ([3]; UDP antagonism of UDP-glucose agonist activity, FIG. 2 Panel B) was about 0.8, the “growth in response to ligand” value (K-3 mutant) was “grew in the presence” and the “agonist/antagonist character at wild type receptor” value [4] was “primarily as an antagonist”.
With `CC(=O)N[C@H]1[C@@H](OP(=O)(O)OP(=O)(O)OC[C@H]2O[C@@H](n3ccc(=O)[nH]c3=O)[C@H](O)[C@@H]2O)O[C@H](CO)[C@@H](O)[C@@H]1O` [UDP-glcNAc, UDP-N-acetylglucosamine] the “growth on selective medium” value [1] was “fails to grow”.
